# In patent US7919508B2, “3-piperidinylisochroman-5-ols as dopamine agonists” (Aventis Pharmaceuticals Inc., priority 2004, dated 2011):
# Structures can show the parent of a compound that is named as a salt. Where two headings read alike, the source gives them in different places.
# How the values were obtained:
# [1] = biological target: T1, human dopamine D1 receptor (Homo sapiens, UniProt P21728); assay: [3H]-SCH-23390 binding to cloned human dopamine D1 receptors (CHO cell membranes)
# T1 construct: A 1.4 Kb Hind III to Xho I fragment was subcloned into the vector pMMLV; expressed in transfected cells; host or cells: CHO cells, clone CHO-D1M#9 (plasmid pHD1MMLV), membranes
# D1 receptor = biological target: T2, D1 receptor (Homo sapiens, UniProt P21728); assay: D1 Activation Adenylyl Cyclase Assay (cAMP FlashPlate, D1 transfected CHO cell line); type: cell-based
# T2 construct: expressed in transfected cells; host or cells: D1 transfected CHO cell line
# Experimental: D1 Activation Adenylyl Cyclase Assay
# Purpose: To measure D1-agonist activity compounds using an Adenylyl Cyclase Activation Flash Plate Assay from NEN.
# Buffers: Activation and Detection buffers are provided from NEN: Catalog # SMP004A.
# Maintenance of D1 transfected CHO cell line: • 1. Cells are grown in a 150 cc flask in an incubator at 37° C. with 5% CO2 for 2-3 days (4 maximum) until confluent. • 2. Aspirate off old media (Cells adhere to the plastic flask), wash 2× with sterile PBS. • 3. Add ˜5 mL of Trypsin EDTA (enough to cover bottom of the flask) for 5 min. at RT. • 4. Stop digestion with 15 mL of Media (Ham's F12 plus 10% FBS, 1% P/S, 400 μg/mL G418). • Bang flask on counter to release them from the flask. • 5. Add 2 mL of this to 30 mL of Media in a fresh flask. Return to incubator. Preparation of Cells for Assay: • 1. Loosen the cells with 5 mL Vercine (EDTA)/flask for 10 minutes in incubator. • 2. Add 20 mL of Serum-free media/flask. Transfer to 50-mL Falcon tube. • 3. Spin down cells at 1000 RPM for 5 minutes at 4° C. • 4. Aspirate off old media and resuspend in 5 mL of Serum-free media/plate to be done. • 5. Dilute 10 μL 1/10 in 90 μL Trypan Blue solution and count with a hemocytometer. • Count (live cells only) all four areas and average them. • Count X 10^5 equals cells/mL (including accounting for dilution in Trypan). • 6. Dilute to 50,000 cells/50 μL (1,000,000 cells/mL) in Serum-free media. • 7. Put 50 μL/well in Rows 3-12 of a cAMP FlashPlate. • 8. Put in incubator at 37° C. for 2-4 hours, to allow cells to recover and attach. Adenylyl Cyclase Activation Assay: • 1. Prepare the cAMP standards: • Add 130 μL/well of stimulation buffer to each row of a separate 96-well “standard” plate, 2 columns/plate. • Dilute stock cAMP standard 1/5 with stimulation buffer (final concentration is 1000 pmol/mL). Add 130 μL of this to row A. • Make 1/2 serial dilutions by adding 130 μL from each well to the next (A-G), mixing between each. • Final concentrations are: • A: 500, B: 250, C: 125, D: 62.5, E: 31.25, F: 15.6, G: 7.8, H: 0 pmol/mL. • Place 100 μL from each row from 2 columns of the standard plate into columns 1 and 2 of each “reaction” plate. • 2. Prepare the negative and positive control in the “reaction” plate: • Column 3, rows A-D, add 100 μL stimulation buffer (negative control). • Column 3, rows E-H, add 90 μL of stimulation buffer plus 10 μL of 200 μM APO (positive control, […]). (10 μL 10 mM APO, plus 490 μL stim. buffer=1/50 dilution.) • 3. Prepare the agonist compound dilutions in the “compound” plate: • Add 80 μL of stimulation buffer to row A (One column for each compound), and 90 μL of stimulation buffer to rows B—H. • Add 20 μL of 10 mM of each compound to appropriate row A. • Make 1/10 serial dilutions by adding 10 μL from each well to the next (A-H), mixing between each. • 4. […]. Prepare Detection/Stop buffer by adding 90 μL/plate of cAMP-^125I to 10 mL/plate plus 6 mL (for dead volume) of detection buffer. Steps 6-8 performed with the Multi-Mek. • 6. Add 50 μL to each well of the FlashPlate with CHO cells set up earlier. • 7. Incubate at RT for 8 minutes. • 8. Stop reaction by adding 100 μL of detection/stop buffer to each well. • 9. Cover with plastic film and incubate at RT for 16-24 hours (don't wait more than 24 hours). • 10. Count in a Packard Top-Count. Calculations: • 1. Raw signals generated by cAMP standard wells, without cells, are averaged at each cAMP concentration and converted to % B/Bo by dividing the raw signal at each cAMP concentration by the raw signal with no cAMP added. • 2. These values are used to generate a standard curve by plotting cAMP concentration versus % B/Bo. • 3. Raw data for each compound at each concentration is also converted to % B/B. by the same method. • 4. These values are then converted to pmol cAMP/mL using the standard curve. • 5. These cAMP values are then averaged across the three replicates for each compound concentration. • 6. […]
# [2] = biological target: human dopamine D2Long (D2L) receptors (Homo sapiens, UniProt P14416)
# [3] = competitive binding, [3H]-SCH-23390, cloned human D1 in CHO membranes, read-out: D1 affinity Ki
# [4] = agonist activity at the D1 receptor, adenylate cyclase assay, D1 transfected CHO cell line, read-out: D1 EC50
# T2 sequence (P21728 whole entry): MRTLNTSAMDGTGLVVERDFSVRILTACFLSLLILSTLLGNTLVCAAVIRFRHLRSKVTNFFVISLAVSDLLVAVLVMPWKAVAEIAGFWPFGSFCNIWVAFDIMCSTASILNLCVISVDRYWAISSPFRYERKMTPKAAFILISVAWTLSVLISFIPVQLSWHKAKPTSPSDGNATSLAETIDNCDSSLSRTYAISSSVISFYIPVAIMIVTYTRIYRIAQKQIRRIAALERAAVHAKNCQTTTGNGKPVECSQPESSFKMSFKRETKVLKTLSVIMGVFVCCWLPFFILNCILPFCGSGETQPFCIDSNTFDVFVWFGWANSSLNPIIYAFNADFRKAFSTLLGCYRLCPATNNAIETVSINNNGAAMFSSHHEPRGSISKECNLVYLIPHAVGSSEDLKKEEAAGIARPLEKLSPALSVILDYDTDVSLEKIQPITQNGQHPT
# T1 sequence (P21728 whole entry, the tested form may be a part): as the sequence (P21728 whole entry) above
# human dopamine D2Long (D2L) receptors, sequence (P14416 whole entry): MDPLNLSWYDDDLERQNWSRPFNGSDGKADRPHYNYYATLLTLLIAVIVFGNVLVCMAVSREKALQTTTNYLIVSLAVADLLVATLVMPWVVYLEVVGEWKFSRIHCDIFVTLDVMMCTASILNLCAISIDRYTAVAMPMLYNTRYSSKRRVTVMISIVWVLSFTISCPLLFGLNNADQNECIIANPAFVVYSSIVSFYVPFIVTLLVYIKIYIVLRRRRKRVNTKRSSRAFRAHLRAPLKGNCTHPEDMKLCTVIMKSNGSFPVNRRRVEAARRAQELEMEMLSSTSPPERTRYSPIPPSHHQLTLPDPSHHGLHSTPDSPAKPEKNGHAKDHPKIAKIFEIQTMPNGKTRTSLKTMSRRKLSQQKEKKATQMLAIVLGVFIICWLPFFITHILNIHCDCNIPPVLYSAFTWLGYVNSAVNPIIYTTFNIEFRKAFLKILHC
SMILES,"Ki [1, 3] [nM]",EC50 (D1 receptor; [4]) [nM],Ki [2] [nM],Ki [1] [nM],EC50 (D1 receptor) [nM]
"Cc1ccc2c(c1O)C[C@@H](C1CCN(CCC(C)c3noc4cc(F)ccc34)CC1)O[C@H]2CN (stereo partly drawn) [Example 104, (1R,3S)-1-Aminomethyl-3-{1-[3-(6-fluoro-benzo[d]isoxazol-3-yl)butyl]piperidin-4-yl}-6-methylisochroman-5-ol dihydrochloride]",70,116,122,,
"CCCCN1CCC([C@@H]2Cc3c(ccc(C)c3O)[C@H](CN)O2)CC1 [Example 33, (1R,3S)-1-Aminomethyl-3-(1-butyl-piperidin-4-yl)-6-methyl-isochroman-5-ol dihydrochloride]",70,13,≥ 10000,,
"Cc1ccc2c(c1O)C[C@@H](C1CCN(CCc3ccccc3)CC1)O[C@H]2CN [Example 106, (1R,3S)-1-Aminomethyl-6-methyl-3-(1-phenethyl-piperidin-4-yl)-isochroman-5-ol dihydrobromide]",45,29,278,,
"Cc1ccc2c(c1O)C[C@@H](C1CCN(CCO)CC1)O[C@H]2CN [Example 43, (1R,3S)-1-Aminomethyl-3-[1-(2-hydroxy-ethyl)-piperidin-4-yl]-6-methyl-isochroman-5-ol dihydrochloride]",86.1,110,≥ 10000,,
"CCCCN(CCCC)C(=O)N1CCC([C@@H]2Cc3c(ccc(C)c3O)[C@H](CN)O2)CC1 [Example 139, 4-((1R,3S)-1-Aminomethyl-5-hydroxy-6-methyl-isochroman-3-yl)-piperidine-1-carboxylic acid dibutylamide hydrochloride]",137,0.11,204,,
"Cc1ccc2c(c1O)C[C@@H](C1CCN(Cc3cccs3)CC1)O[C@H]2CN [Example 47, (1R,3S)-1-Aminomethyl-6-methyl-3-(1-thiophen-2-ylmethyl-piperidin-4-yl)-isochroman-5-ol dihydrochloride]",66.4,170,≥ 10000,,
"CNC[C@@H]1O[C@H](C2CCN(Cc3ccc(C(C)C)cc3)CC2)Cc2c1ccc(C)c2O [Example 97, (1R,3S)-3-[1-(4-Isopropyl-benzyl)-piperidin-4-yl]-6-methyl-1-methylaminomethyl-isochroman-5-ol dihydrochloride]",53.1,66,357,,
"Cc1ccc2c(c1O)C[C@@H](C1CCN(S(=O)(=O)CCc3cccc4ccccc34)CC1)O[C@H]2CN [Example 159, (1R,3S)-1-Aminomethyl-6-methyl-3-[1-(2-naphthalen-1-yl-ethanesulfonyl)-piperidin-4-yl]-isochroman-5-ol hydrochloride]",64.5,35,≥ 100000,,
"Cc1ccc2c(c1O)C[C@@H](C1CCN(C/C=C/c3ccccc3)CC1)O[C@H]2CN [Example 109, (1R,3S)-1-Aminomethyl-6-methyl-3-[1-(3-phenyl-allyl)-piperidin-4-yl]-isochroman-5-ol dihydrobromide]",108,102,212,,
"Cc1ccc2c(c1O)C[C@@H](C1CCN(CC(C)c3ccccc3)CC1)O[C@H]2CN (stereo partly drawn) [Example 29, (1R,3S)-1-Aminomethyl-3-[1-(2-phenyl-propyl)-piperidin-4-yl]-6-methyl-isochroman-5-ol dihydrobromide]",64,40,≥ 10000,,
"Cc1ccc2c(c1O)C[C@@H](C1CCN(C(=O)Oc3ccccc3C(F)(F)F)CC1)O[C@H]2CN [Example 119, 4-((1R,3S)-1-Aminomethyl-5-hydroxy-6-methyl-isochroman-3-yl)-piperidine-1-carboxylic acid 2-trifluoromethyl-phenyl ester hydrochloride]",,,649,54,3.1
"Cc1ccc2c(c1O)C[C@@H](C1CCN(CC3CC3)CC1)O[C@H]2CN [Example 38, (1R,3S)-1-Aminomethyl-3-(1-cyclopropylmethyl-piperidin-4-yl)-6-methyl-isochroman-5-ol dihydrochloride]",53,10,≥ 10000,,
"Cc1ccc2c(c1O)C[C@@H](C1CCN(Cc3nc4ccccc4n3C)CC1)O[C@H]2CN [Example 92, (1R,3S)-1-Aminomethyl-6-methyl-3-[1-(1-methyl-1H-benzoimidazol-2-ylmethyl)-piperidin-4-yl]-isochroman-5-ol trihydrochloride]",29.2,0.98,93.4,,
"Cc1ccc2c(c1O)C[C@@H](C1CCN(CCC(C)NC(=O)c3ccc(Cl)cc3)CC1)O[C@H]2CN (stereo partly drawn) [Example 13, N-{3-[4-((1R,3S)-1-Aminomethyl-5-hydroxy-6-methyl-isochroman-3-yl)-piperidin-1-yl]-1-methyl-propyl}-4-chloro-benzamide dihydrochloride]",128,30,361,,
"CNC[C@@H]1O[C@H](C2CCN(Cc3ccc(-c4ccccc4)cc3)CC2)Cc2c1ccc(C)c2O [Example 98, (1R,3S)-3-(1-Biphenyl-4-ylmethyl-piperidin-4-yl)-6-methyl-1-methylaminomethyl-isochroman-5-ol dihydrochloride]",60.3,15,239,,
"Cc1ccc2c(c1O)C[C@@H](C1CCN(Cc3ccc(F)cc3)CC1)O[C@H]2CN [Example 26, (1R,3S)-1-Aminomethyl-3-[1-(4-fluoro-benzyl)-piperidin-4-yl]-6-methyl-isochroman-5-ol dihydrobromide]",33,11,≥ 10000,,
"Cc1ccc2c(c1O)C[C@@H](C1CCN(Cc3cccnc3)CC1)O[C@H]2CN [Example 53, (1R,3S)-1-Aminomethyl-6-methyl-3-(1-pyridin-3-ylmethyl-piperidin-4-yl)-isochroman-5-ol dihydrochloride]",60.7,15,≥ 10000,,
"Cc1ccc2c(c1O)C[C@@H](C1CCN(CCNC(=O)Nc3ccc(F)cc3)CC1)O[C@H]2CN [Example 192, (1R,3S)-1-{2-[4-(1-Aminomethyl-5-hydroxy-6-methyl-isochroman-3-yl)-piperidin-1-yl]ethyl}-3-(4-fluoro-phenyl)urea dihydrobromide]",77,11,477,,
"Cc1ccc2c(c1O)C[C@@H](C1CCN(Cc3cc(C(F)(F)F)ccc3Cl)CC1)O[C@H]2CN [Example 77, (1R,3S)-1-Aminomethyl-3-[1-(2-chloro-5-trifluoromethyl-benzyl)-piperidin-4-yl]-6-methyl-isochroman-5-ol dihydrochloride]",36,80,40,,
